Data reported in patent US10927107B2, “Phenyl [a]indole[2,3-g]quinolizine compounds, preparation method therefor, pharmaceutical composition, and applications thereof” (Shanghai Institute of Materia Medica, Chinese Academy of …, priority 2016, dated 2021).
Where two headings read alike, the source gives them in different places.

Experiments:
[1] = system: HepG2 cells; assay: In vitro lipid-lowering activity: DiI-LDL uptake in HepG2 cells; assay type: cell-based; details: Homo sapiens, test compound 5 uM, 24 h, DiI-LDL 20 ug/ml, 3 h, FLU of sample group/FLU of blank group x100%, read-out: LDL uptake rate
Method: HepG2 cells were inoculated in 24-well plates, cultured in DMEM containing 10% FBS for 24 h or 48 h, and then transferred to DMEM containing 2% defatted serum and cultivated for 24 h. The old culture solution was discarded and replaced with new 2% defatted serum DMEM, and a test compound (the working concentration of which is 5 uM, triplicate for each sample) was added and incubated for 24 h. The old culture solution was abandoned and DMEM containing DiI-LDL (20 ug/ml) was added (300 ul/per 24 wells), incubated for 3 h. DMEM containing DiI-LDL was discarded, and cells were rinsed twice with PBS containing 0.4% BSA, and 3 times with PBS to remove excess DiI-LDL. Isopropanol was added (500 ul/per well of a 24-well plate), and was kept in darkness. After shaken for 20 minutes, 200 ul of supernatant was sucked to a black fluorescent plate, and fluorescence intensity (FLU) was detected at excitation light 520 nm and emission light 578 nm. The experimental results were calculated: LDL uptake rate=(FLU value of sample group to be tested/FLU value of blank group)×100%.

[2] = target: T1, α1A-adrenergic receptor (α1A-AR) (Homo sapiens, UniProt P35348); assay: Antagonistic activity on α1A-AR: calcium fluorescence in HEK293 cells stimulated with phenylephrine; assay type: cell-based; details: HEK293 cells expressing α1A-AR; agonist phenylephrine 30 nM; calcium fluorescence; read-out: α1A-AR/IC50
T1 construct: expressed in transfected cells; host or cells: HEK293
T1 sequence (P35348 1-466): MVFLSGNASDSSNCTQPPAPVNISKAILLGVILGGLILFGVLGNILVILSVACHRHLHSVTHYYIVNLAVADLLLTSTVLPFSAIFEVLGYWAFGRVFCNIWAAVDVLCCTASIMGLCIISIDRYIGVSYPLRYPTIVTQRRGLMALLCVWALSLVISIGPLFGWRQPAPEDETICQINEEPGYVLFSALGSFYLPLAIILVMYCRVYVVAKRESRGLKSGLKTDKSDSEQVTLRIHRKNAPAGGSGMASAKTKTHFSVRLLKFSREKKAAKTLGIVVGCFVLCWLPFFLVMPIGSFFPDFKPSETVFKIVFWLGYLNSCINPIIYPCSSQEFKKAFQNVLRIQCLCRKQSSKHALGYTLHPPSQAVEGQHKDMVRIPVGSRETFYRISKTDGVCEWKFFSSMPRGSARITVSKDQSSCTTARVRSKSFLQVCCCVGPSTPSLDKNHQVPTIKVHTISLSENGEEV
Method: HEK293 cells stably expressing α1A-adrenergic receptor (α1A-AR) and G protein […] were seeded in 96-well plates. After 24 hours of culture, the medium was removed, and 40 μL of Hank's balanced salt solution (HBSS: containing 5.4 mM KCl, 0.3 mM Na2HPO4, 0.4 mM KH2PO4, 4.2 mM NaHCO3, 1.3 mM CaCl2, 0.5 mM MgCl2, 0.6 mM MgSO4, 137 mM NaCl, 5.6 mM D-glucose and 250 μM sulfinpyridone, pH 7.4) containing 2 μM of MFluo-4AM was added to each well, and incubated for 45 minutes in an incubator. The dye was aspirated and 50 μL of HBSS containing a test compound or 1% DMSO (negative control) was added and incubated for 10 minutes at room temperature, and then read with Flex Station 3 microplate reader. At the specified time point, 25 μL of agonist phenylephrine (final concentration 30 nM) will be automatically added by the detector into the reaction system, and simultaneously stimulated with 485 nm light, and the change in intensity of fluorescence caused by the change in the intracellular calcium ion concentration was detected at 525 nm. […] The response rate of different doses of the same drug was analyzed by GraphPad Prism software to obtain a dose-response curve and the IC50 value was measured. Each experiment was performed in […].

[3] = system: Syrian golden hamsters (high-fat diet, hyperlipidemia model); assay: In vivo lipid-lowering activity in high-fat diet golden hamsters; design: species or system Syrian golden hamster; details: for CHOL / HDL-C / LDL-C / TG: high-fat diet, serum
Method: After adaptively feeding Syrian golden hamsters (male, 80-100 g) for a week, all hamsters were fed with high-fat diet. Two weeks later, blood was collected from the orbital venous plexus, serum was separated, and levels of total cholesterol (TC), triglyceride (TG), high-density lipoprotein (HDL-C) and low-density lipoprotein (LDL-C) in serum were measured. They were evenly grouped according to blood lipid levels into […]: model control group, A1 intragastric administration group, A1 intraperitoneal administration group, A5 intragastric administration group, A5 intraperitoneal administration group, A55 intragastric administration group, A55 intraperitoneal administration group, B5 intragastric administration group, B5 intraperitoneal administration group, and the animals in each group were continued to be administered with high fat diet. […] […] Blood lipid levels and body weights were measured every 10 days. After three weeks, the animals were sacrificed and the liver was stored in a −80° C. refrigerator.

[4] = Rat pharmacokinetics; assay type: in vivo; design: AUC(0-t) / AUC(0-inf): concentration or dose not given beside the values; details: in vivo; for AUC(0-inf): read-out: AUCINF—obs; for MRT inf: read-out: MRTINF—obs
Method: (§1) A1 10 μL of a plasma sample was taken in a centrifuge tube and 100 μL of methanol:acetonitrile (1:1, v/v) was added, vortexed for 1 min, centrifugated (14000 rpm) for 5 min, and 50 μL supernatant was taken, mixed with equal volume of water, and analysised after vortex mixing. The linear range of A1 is: 0.1-300 ng/mL for oral administration and 1-3000 ng/mL for intravenous injection.
as §1, with “A55” for “A1”, “0.3-3000” for “1-3000”

[5] = Rat pharmacokinetics; design: AUC(0-t) / AUC(0-inf): concentration or dose not given beside the values; details: in vivo, ip, i.p; for AUC(0-inf): read-out: AUCINF—obs; for MRT inf: read-out: MRTINF—obs
[6] = abdominal (intraperitoneal) 30 mg/kg once a day for three weeks
[7] = oral (intragastric) 30 mg/kg once a day for three weeks

Row | Structure (SMILES) | activity at 5 µM [1] | IC50 [2] | half-life ([4]; ip, i.p) | AUC(0-t) ([4]; po, i.g) | Cmax ([4]; po, i.g) | Tmax ([4]; po, i.g) | bioavailability ([4]; po, i.g) | half-life ([4]; po, i.g) | AUC(0-inf) ([4]; po, i.g) | MRT inf ([4]; po, i.g) | AUC(0-t) [5] | AUC(0-inf) [5] | MRT inf [5] | TC ([3]; Dose 30, oral) | further results
1 | COc1ccc2[nH]c3c(c2c1)CC1c2cc(OCc4ccc(F)cc4)c(OC)cc2CCN1C3c1ccc(F)cc1 (stereo not shown) [Example B5, 2-((4-fluorobenzyl)oxo)-8-(4-fluorophenyl)-3,12-dimethoxy-5,6,8,9,14,14a-hexahydroindole[3′,2′:4,5]pyridine[2,1-a]isoquinoline] | 134% | > 100 µM | – | – | – | – | – | – | – | – | – | – | – | – | CHOL [3, 6]: 14.92 mmol/L; HDL-C [3, 6]: 2.90 mmol/L; LDL-C [3, 6]: 7.89 mmol/L; TG [3, 6]: 16.14 mmol/L; CHOL [3, 7]: 14.79 mmol/L; HDL-C [3, 7]: 3.99 mmol/L; LDL-C [3, 7]: 7.66 mmol/L; TG [3, 7]: 11.94 mmol/L; contents of cholesterol (CHOL), triglyceride (TG) and low density lipoprotein (LDL-C) in the blood ([3]; hyperlipidemia model): significantly reduced
2 | COc1ccc2[nH]c3c(c2c1)CC1c2cc(OCc4ccc(C(F)(F)F)cc4)c(OC)cc2CCN1C3 (stereo not shown) [Example C3, 3,12-dimethoxy-2-((4-(trifluoromethyl)benzyl)oxy)-5,6,8,9,14,14a-hexahydroindolo[3′,2′:4,5]pyridine[2,1-a]isoquinoline] | – | – | 18.5 h | 3.96 µg·h/mL | 297 ng/mL | 4 h | 57.2% | 6.53 h | 4.34 µg·h/mL | 7.74 h | 3.47 µg·h/mL | 9.36 µg·h/mL | 15.3 h | 25.08 ± 16.98 mmol/L | TC ([3]; Dose 100, oral): 21.17 ± 3.89 mmol/L
3 | COc1ccc2[nH]c3c(c2c1)CC1c2cc(OC)c(OCc4ccc(C(F)(F)F)cc4)cc2CCN1C3 (stereo not shown) [Example C47, 2,12-dimethoxy-3-((4-(trifluoromethyl)benzyl)oxy)-5,6,8,9,14,14a-hexahydroindolo[3′,2′:4,5]pyridine[2,1-a]isoquinoline] | 150% | > 100 µM | 51.2 h | 9.25 µg·h/mL | 251 ng/mL | 4 h | 31% | 38.2 h | 564 µg·h/mL | 56.1 h | 14.9 µg·h/mL | 1120 µg·h/mL | 66.4 h | 19.73 ± 6.44 mmol/L | Cmax ([4]; ip, i.p): 276 ng/mL; Tmax ([4]; ip, i.p): 24 h
